# Test results from patent publication US8648101B2, “Nematicidal agent composition and method of using the same” (Nihon Nohyaku Co., Ltd., priority 2007, dated 2014).
# Columns and labels:
# [1] = system: southern root-knot nematode (Meloidogyne incognita); assay: Nematocidal test on the southern root-knot nematode, pot-grown melon seedlings; format: in vivo; parameters: key: A: no root knots.; B: root knots are present but their number is definitely smaller than that for untreated plot.; C: root knots are present in an equivalent number to or a larger number than that for untreated plot; conditions: 30 ppm emulsion dilution, 1 ml injected at foot of melon seedlings; 8 days after inoculation
# Procedure: Nematocidal Test on the Southern Root-Knot Nematode (Meloidogyne incognita)
# An emulsion comprising each compound listed in Table 1 as an active ingredient was prepared as directed in Preparation Example 1, and diluted to obtain active ingredient concentrations of 300 ppm and 30 ppm. Each of these dilutions (1 ml) was applied to the foots of pot-grown melon seedlings by injection; 1 day after application of the dilution, an aqueous suspension of southern root-knot nematodes (about 500 nematodes/ml) was inoculated (soil injection), to a treated plot and an untreated plot and the pots were placed in a 25° C. greenhouse. Eight days after the inoculation, the roots were washed with water and examined for the number of root knots, and the effects were determined according to the following rating criteria.
# • A: no root knots. • B: root knots are present but their number is definitely smaller than that for untreated plot. • C: root knots are present in an equivalent number to or a larger number than that for untreated plot.
# [2] = system: soybean cyst nematode (Heterodera grycines); assay: Nematocidal test on the soybean cyst nematode, treated soil with soybean; format: in vivo; parameters: key: A: no cysts.; B: cysts are present but their number is definitely smaller than that for untreated plot.; C: cysts are present in an equivalent number to or a larger number than that for untreated plot; conditions: 7.5 mg wettable powder (1.5 mg active ingredient per kg soil); 40 days after seeding
# Procedure: Nematocidal Test on the Soybean Cyst Nematode (Heterodera grycines)
# A wettable powder comprising each compound listed in Table 1 as an active ingredient was prepared as directed in Preparation Example 4, and 75 mg and 7.5 mg were weighed out so that the active ingredient content would be 15 mg and 1.5 mg per kg soil; these agents were mixed in soil (1000 g) contaminated with soybean cyst nematodes in a plastic bag. The treated soil was filled in pots, soybean seeds were sown, and the pots were placed in a glass greenhouse. Forty days after the seeding, the soil on the roots was put down, the number of cysts was examined, and the effect was determined according to the rating criteria shown below.
# • A: no cysts. • B: cysts are present but their number is definitely smaller than that for untreated plot. • C: cysts are present in an equivalent number to or a larger number than that for untreated plot.
compound,measurement,setting,value
"O=C(NCCc1ncc(C(F)(F)F)cc1Cl)c1ccccc1C(F)(F)F [Compound 7, N-[2-(3-chloro-5-trifluoromethylpyridin-2-yl)ethyl]-2-trifluoromethylbenzamide]",rating (number of root knots),[1],A
same,rating (number of cysts),[2],A
